Experimental data from PMC10824102, “Identification of small molecule inhibitors of G3BP-driven stress granule formation” (The Journal of Cell Biology, 2024).

Tests used:
[1] = test system: G3BP1 and FUS R495X puncta in U2OS cells with tdTomato-tagged endogenous G3BP1; assay: Pretreatment before FUS R495X transfection, cytoplasmic puncta area; type: cell-based; conditions: 50 μM, 20 min before FUS R495X transfection, 24 h
Protocol: U2OS cells with knock-in of G3BP1-tdTomato ([Yang et al., 2020]) were seeded into 96-well plates (3904; Corning). Either GFP-VCP-A232E or GFP-FUS-R495X were transfected into cells using ViaFect transfection reagent (Promega) 24 h prior to the start of the experiment. For samples to be treated with compounds G3Ia or G3Ia′, Hoechst (1:5,000; Biotium) was added and incubated for 30 min prior to the start of the experiment, washed once with PBS, and the media was changed to 100 μl FluoroBrite DMEM media (Gibco) upon starting the experiment. Imaging of plates was performed on a Cytation C10 spinning disk confocal (BioTek) with a Hamamatsu Orca-Flash 4.0 camera using Gen5 software (version 3.11). Imaging was performed through an Olympus Plan Apo 40× 0.6 NA dry objective with an adjustable collar set to 0.5 μm thickness. Laser autofocus prior to imaging the tdTomato channel was utilized for each image. The temperature was maintained at 37°C on the instrument and the cells were supplied with 5% CO2. A 7 × 7 tilescan was taken at the center of each well, capturing the tdTomato and GFP channels (and Hoechst when present). After completing the tilescan, 100 μl FluoroBrite with 100 μM (2×) G3I compound (vortexed for 5 s) was added to each well and incubated for 20 min before starting another round of imaging in the same locations as the first round. Samples treated with G3Ib or G3Ib′ were analyzed manually, scoring each cell with spontaneous granules for the presence or absence of granules following treatment with the compound. For experiments in which G3I compounds were pretreated prior to transfection, 50 μM of indicated compound or vehicle control were added to U2OS cells 20 min prior to the addition of the transfection reagent. After 24 h of transfection, the cells were washed with PBS, fixed in 4% formaldehyde, and incubated with Hoechst (1:5,000; Biotium) in PBS for 30 min prior to the start of the experiment, washed once with PBS, and at room temperature imaging on the Cytation C10 spinning disk confocal was performed as described above.
Samples treated with G3Ia or G3Ia′ were analyzed using an automated pipeline. Segmentation was performed in both ilastik and Cellpose 2.0. Nuclear segmentation using the Hoechst channel and granule segmentation in both GFP and tdTomato channels was performed via pixel classification in ilastik using small cropped portions of the tilescan as the training dataset for each. Individual cell segmentation was performed in Cellpose 2.0 by inputting a merged RGB of the Hoechst and G3BP1-tdTomato channels. The Cellpose output was then eroded by one pixel and set as a binary mask in Fiji. […]

[2] = target: T1, co-condensation of RNA, G3BP1, and caprin 1 (Homo sapiens, UniProt Q13283); assay: In vitro LLPS, three-component system (G3BP1, caprin 1, RNA); type: biochemical; conditions: for IC50, inhibition of G3BP1-GFP in vitro phase separation / LogIC50, inhibition of G3BP1-GFP in vitro phase separation / IC50: 1.5 μM G3BP1, 1.5 μM caprin 1, 20 ng/μl total RNA; for IC50: read-out: IC50, inhibition of G3BP1-GFP in vitro phase separation; for co-condensation of caprin 1, G3BP1, and RNA: result in words; for HillSlope, inhibition of G3BP1-GFP in vitro phase separation: slope at the steepest part of the curve; for Bottom (lowest value of curve), percent inhibition of in vitro phase separation / Top (highest value of curve), percent inhibition of in vitro phase separation: three-component system
T1 construct: made in house; host or cells: E. coli BL21 (DE3)
Protocol: LLPS assays were performed in 30 μl total volume at 25°C at pH 7.4 in buffer containing 37 mM Tris, pH 7.5, 116 mM NaCl, 0.33% NP-40, 2.6% glycerol, 0.5 mM DTT with 20 ng/μl total cellular RNA from U2OS cells and 1.425 μM G3BP1, 0.075 μM FLAG-GFP-G3BP1, and 1.5 μM caprin 1. Reactions were initiated by adding G3BP1/caprin 1 protein mix to cellular RNA, followed by 3 min of shaking at 450 rpm and then incubation for 70 min in the dark. For condensates formed with G3BP1 and RNA, 20 μM purified G3BP1 and 100 ng of total cellular RNA from HEK293T cells were added to a buffer consisting of 100 mM NaCl and 16.7 mM HEPES (pH 7.5) in the presence of the indicated dose of G3Ib or vehicle control.

[3] = test system: TDP-43 localization to stress granules in CRISPR-modified U2OS cells; assay: Live imaging of GFP-TDP-43 and mRuby3-G3BP1 in CRISPR-modified U2OS cells; type: cell-based; conditions: 50 μM pretreatment, 250 μM NaAsO2 for 30 min
Protocol: For preincubation of compounds, U2OS or HeLa cells stably expressing G3BP1-GFP or CRISPR-modified cells expressing TDP-43-GFP/G3BP1-GFP were seeded into eight-well Lab-Tek chambered cover glass (Nunc). At least 20 min prior to the experiment, 1 ml FluoroBrite DMEM media (Gibco) supplemented with 10% FBS and 4 mM L-glutamine was combined with 0.1% DMSO or G3I compound (5, 10, or 50 μM). This solution was vortexed for 5 s, added to the cells at 250 μl per well, and left to incubate on the microscope for 20 min. Conditions were maintained at 37°C and 5% CO2 using a Bold Line Cage Incubator (Okolab) and an objective heater (Bioptechs). During this incubation time, 5 xy fields were stored per condition, with each field having ∼20–30 cells within it. After the 20-min incubation, 250 μl of 500 μM or 1 mM (2×) sodium arsenite (Sigma-Aldrich) diluted in the FluoroBrite media with an appropriate amount of G3I compound or DMSO was added to the sample. Imaging began immediately after, with images at each xy field being taken every 1 min. For heat shock experiments, U2OS G3BP1-GFP-expressing cells were seeded into a 35-mm glass bottom dish (MatTek). Prior to the experiment, 1.5 ml FluoroBrite DMEM media (Gibco) supplemented with 10% FBS and 4 mM L-glutamine was combined with 0.1% DMSO or 50 μM G3I compound. The sample was incubated on the environmentally controlled microscope for 20 min. […]

T1 sequence (Q13283 whole entry): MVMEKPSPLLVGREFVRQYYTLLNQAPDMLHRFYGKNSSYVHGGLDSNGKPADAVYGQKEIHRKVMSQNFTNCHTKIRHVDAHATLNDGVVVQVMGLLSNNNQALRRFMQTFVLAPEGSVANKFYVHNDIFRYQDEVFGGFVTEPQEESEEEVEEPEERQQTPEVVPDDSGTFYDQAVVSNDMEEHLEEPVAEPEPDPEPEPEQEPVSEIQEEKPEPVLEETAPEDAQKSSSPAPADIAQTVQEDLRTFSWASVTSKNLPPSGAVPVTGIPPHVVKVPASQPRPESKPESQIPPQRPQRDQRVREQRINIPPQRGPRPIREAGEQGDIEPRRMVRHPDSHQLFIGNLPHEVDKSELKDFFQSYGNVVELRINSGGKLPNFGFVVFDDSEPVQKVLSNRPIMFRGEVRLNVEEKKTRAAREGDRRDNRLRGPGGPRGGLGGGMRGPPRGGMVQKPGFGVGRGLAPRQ
T1 sequence (Q13283 whole entry): as above

COCCC(NC(=O)C(C)NC(=O)C(NC(=O)C(NC(=O)C(F)CC(C)(C)C)C(C)(C)O)C(C)c1ccccc1)C(=O)N(C)Cc1ccccc1 (stereo not drawn) [G3Ia]
area of G3BP1 found in puncta compared with vehicle-treated cells [1]: reduced the area of G3BP1 found in puncta
formation and incorporation of FUS R495X into cytoplasmic granules [1]: failed to block the formation and incorporation of FUS R495X into cytoplasmic granules
IC50, inhibition of G3BP1-GFP in vitro phase separation [2]: Unstable
LogIC50, inhibition of G3BP1-GFP in vitro phase separation [2]: 0.6508
LogIC50, inhibition of G3BP1-GFP in vitro phase separation ([2]; listed as G3Ia'): Unstable
IC50 [2]: 4.48 µM
co-condensation of caprin 1, G3BP1, and RNA [2]: disrupted the co-condensation
HillSlope, inhibition of G3BP1-GFP in vitro phase separation [2]: 1.354
HillSlope, inhibition of G3BP1-GFP in vitro phase separation ([2]; listed as G3Ia'): Unstable
Bottom (lowest value of curve), percent inhibition of in vitro phase separation [2]: Unstable
Top (highest value of curve), percent inhibition of in vitro phase separation [2]: Unstable

CC(NC(=O)C(NC(=O)C(NC(=O)CCC(C)(C)C)C(C)(C)O)C(C)c1ccccc1)C(=O)N1CCCC1c1ccccc1 (stereo not drawn) [G3Ib]
area of G3BP1 found in puncta compared with vehicle-treated cells [1]: reduced the area of G3BP1 found in puncta
formation and incorporation of FUS R495X into cytoplasmic granules [1]: failed to block the formation and incorporation of FUS R495X into cytoplasmic granules
IC50, inhibition of G3BP1-GFP in vitro phase separation [2]: Unstable
LogIC50, inhibition of G3BP1-GFP in vitro phase separation [2]: 0.5379
LogIC50, inhibition of G3BP1-GFP in vitro phase separation ([2]; listed as G3Ib'): Unstable
IC50 [2]: 3.45 µM
co-condensation of caprin 1, G3BP1, and RNA [2]: disrupted the co-condensation
HillSlope, inhibition of G3BP1-GFP in vitro phase separation [2]: 1.004
HillSlope, inhibition of G3BP1-GFP in vitro phase separation ([2]; listed as G3Ib'): Unstable
Bottom (lowest value of curve), percent inhibition of in vitro phase separation [2]: 4.401
Top (highest value of curve), percent inhibition of in vitro phase separation [2]: 1.518
TDP-43 localization to stress granules [3]: not

CC(NC(=O)C(NC(=O)C(NC(=O)CCC(C)(C)C)C(C)(C)O)C(C)c1ccccc1)C(=O)N1CCCC1c1ccccc1 (stereo not drawn) [G3Ib′]
TDP-43 localization to stress granules [3]: a small proportion of TDP-43 localized to stress granules
